Test: xn = mol fraction of the nth substance listed
Settings: 313.15 K, Liquid; for viscosity: Concentric cylinders viscometry; for mass density: Vibrating tube method

Cc1ccc(C)c(C)c1 [1,2,4-trimethylbenzene] + CCC(C)O
Settings	mass density [kg/m3]	viscosity [mPa·s]
100 kPa, x2 = 0	859	–
100 kPa, x2 = 0.1	852.6	–
100 kPa, x2 = 0.1989	846.6	–
100 kPa, x2 = 0.3011	840.2	–
100 kPa, x2 = 0.4002	834	–
100 kPa, x2 = 0.5001	827.5	–
100 kPa, x2 = 0.5298	–	0.773
100 kPa, x2 = 0.5997	820.6	–
100 kPa, x2 = 0.6001	–	0.84
100 kPa, x2 = 0.6999	813.4	–
100 kPa, x2 = 0.7001	–	0.94
100 kPa, x2 = 0.7997	–	1.09
100 kPa, x2 = 0.7999	806	–
100 kPa, x2 = 0.9	797.9	–
100 kPa, x2 = 0.9001	–	1.35
1000 kPa, x2 = 0	859.7	–
1000 kPa, x2 = 0.1	853.3	–
1000 kPa, x2 = 0.1989	847.2	–
1000 kPa, x2 = 0.3011	840.9	–
1000 kPa, x2 = 0.4002	834.7	–
1000 kPa, x2 = 0.5001	828.2	–
1000 kPa, x2 = 0.5997	821.3	–
1000 kPa, x2 = 0.6999	814.2	–
1000 kPa, x2 = 0.7999	806.7	–
1000 kPa, x2 = 0.9	798.7	–
2000 kPa, x2 = 0	860.4	–
2000 kPa, x2 = 0.1	854.1	–
2000 kPa, x2 = 0.1989	848	–
2000 kPa, x2 = 0.3011	841.7	–
2000 kPa, x2 = 0.4002	835.6	–
2000 kPa, x2 = 0.5001	829.1	–
2000 kPa, x2 = 0.5997	822.2	–
2000 kPa, x2 = 0.6999	815	–
2000 kPa, x2 = 0.7999	807.6	–
2000 kPa, x2 = 0.9	799.6	–
5000 kPa, x2 = 0	862.6	–
5000 kPa, x2 = 0.1	856.3	–
5000 kPa, x2 = 0.1989	850.3	–
5000 kPa, x2 = 0.3011	844.1	–
5000 kPa, x2 = 0.4002	838	–
5000 kPa, x2 = 0.5001	831.5	–
5000 kPa, x2 = 0.5997	824.6	–
5000 kPa, x2 = 0.6999	817.5	–
5000 kPa, x2 = 0.7999	810.1	–
5000 kPa, x2 = 0.9	802.1	–
10000 kPa, x2 = 0	866	–
10000 kPa, x2 = 0.1	860	–
10000 kPa, x2 = 0.1989	854.1	–
10000 kPa, x2 = 0.3011	847.9	–
10000 kPa, x2 = 0.4002	841.7	–
10000 kPa, x2 = 0.5001	835.4	–
10000 kPa, x2 = 0.5997	828.5	–
10000 kPa, x2 = 0.6999	821.5	–
10000 kPa, x2 = 0.7999	814.2	–
10000 kPa, x2 = 0.9	806.2	–
15000 kPa, x2 = 0	869.3	–
15000 kPa, x2 = 0.1	863.5	–
15000 kPa, x2 = 0.1989	857.6	–
15000 kPa, x2 = 0.3011	851.5	–
15000 kPa, x2 = 0.4002	845.4	–
15000 kPa, x2 = 0.5001	839.1	–
15000 kPa, x2 = 0.5997	832.3	–
15000 kPa, x2 = 0.6999	825.3	–
15000 kPa, x2 = 0.7999	818	–
15000 kPa, x2 = 0.9	810.1	–
20000 kPa, x2 = 0	872.6	–
20000 kPa, x2 = 0.1	866.8	–
20000 kPa, x2 = 0.1989	861	–
20000 kPa, x2 = 0.3011	854.9	–
20000 kPa, x2 = 0.4002	848.9	–
20000 kPa, x2 = 0.5001	842.6	–
20000 kPa, x2 = 0.5997	835.9	–
20000 kPa, x2 = 0.6999	829	–
20000 kPa, x2 = 0.7999	821.7	–
20000 kPa, x2 = 0.9	813.8	–
30000 kPa, x2 = 0	878.7	–
30000 kPa, x2 = 0.1	873.2	–
30000 kPa, x2 = 0.1989	867.5	–
30000 kPa, x2 = 0.3011	861.5	–
30000 kPa, x2 = 0.4002	855.6	–
30000 kPa, x2 = 0.5001	849.4	–
30000 kPa, x2 = 0.5997	842.8	–
30000 kPa, x2 = 0.6999	835.8	–
30000 kPa, x2 = 0.7999	828.6	–
30000 kPa, x2 = 0.9	820.8	–
40000 kPa, x2 = 0	884.5	–
40000 kPa, x2 = 0.1	879.2	–
40000 kPa, x2 = 0.1989	873.5	–
40000 kPa, x2 = 0.3011	867.6	–
40000 kPa, x2 = 0.4002	861.7	–
40000 kPa, x2 = 0.5001	855.8	–
40000 kPa, x2 = 0.5997	849	–
40000 kPa, x2 = 0.6999	842.2	–
40000 kPa, x2 = 0.7999	835	–
40000 kPa, x2 = 0.9	827.3	–
50000 kPa, x2 = 0	889.9	–
50000 kPa, x2 = 0.1	884.8	–
50000 kPa, x2 = 0.1989	879.3	–
50000 kPa, x2 = 0.3011	873.4	–
50000 kPa, x2 = 0.4002	867.5	–
50000 kPa, x2 = 0.5001	861.6	–

— the NIST ThermoML archive (doi:10.1016/j.jct.2017.03.006)
